Experimental data reported in patent US9750844B2, “Composition for use in wound healing in burns” (ACADEMIA SINICA, priority 2014, dated 2017).
Entries after “also recorded” stand apart in the source; their conditions may differ.

Experiments:
[1] = system: monocytes, macrophages, VEGF; experiment: Histology (H&E, Giemsa) and immunohistochemistry of wound tissue; assay type: in vivo, Balb/C mice
Description: (§1) Elisa kits for […] (Cat no. 555260, BD Biosciences, CA, USA), IL-6 (Cat no. 555240, BD Biosciences, CA, USA), and TNF (Cat no. 558534, BD Biosciences, CA, USA) were used to determine cytokine levels. Antibodies against macrophages (Cat no. 550282, BD Biosciences, CA, USA), monocytes (Cat no. 101301, BioLegend, London, UK), and VEGF (Cat no. 550549, BD Biosciences, CA, USA) were used for immunohistochemistry (IHC). Fish scale collagen peptides (FSCPs) were isolated from tilapia (Oreochromis sp.) by the Seafood Technology Division, Fisheries Research Institute, Council of Agriculture, Taiwan.
(§2) Full-thickness tissue was harvested for microbial and histological analysis. Samples from each experiment were fixed in 4% buffered paraformaldehyde. Tissue samples were stained with hematoxylin/eosin or Giemsa, and immunohistochemistry (IHC) was analyzed by three independent investigators. Images were taken with a BX-51 microscope (Olympus, Japan).

MRSA [2] = experiment: Antimicrobial MIC/MBC assay against MRSA in vitro; assay type: cell-based, Staphylococcus aureus; settings: bacterial proliferation by optical density at 600 nm
Experimental: Minimum inhibitory concentration (MIC) and minimum bactericidal concentration (MBC) antimicrobial assays were performed. For MIC assessment, the antimicrobial peptide, Epi-1, was diluted to final concentrations of […], or 0.78 μg/ml. Twenty microliters of each dilution were mixed in a microtiter plate well with […] of the appropriate bacterial indicator suspension, and 160 μl of Trypticase Soy Broth (TSB) for S. aureus, to a total volume of 200 μl. Three replicates were examined for each S. aureus strain, compound, and concentration. Positive controls contained water instead of compounds, and negative controls contained compounds without bacterial suspensions. Microbial growth was automatically determined by optical density measurement at 600 nm (Bioscreen C, Labsystem, Helsinki, Finland). Microplates were incubated at 25° C. for plant pathogens and at 37° C. for food-borne bacterial strains. Absorbance readings were taken at hourly intervals over a 48 h period. Plates were shaken for 20 seconds before each measurement. The experiment was repeated twice.

MRSA [3] = experiment: MRSA-infected full-thickness skin excision wound in mice: survival, wound closure, angiogenesis; assay type: in vivo, Balb/C mice; settings: for survival of infected mice: wound infected with 10^6 CFU MRSA, topical treatment
Experimental: Six to eight week old Balb/C male mice were used for the examples. MRSA culture and quantification were carried out, and suspensions were serially diluted and spread onto LB-agar plates in duplicate for 24 hours. After the incubation period, colony forming units (CFU) were counted, averaged, and expressed as CFU/ml. All animal handing procedures were in accordance with National Taiwan Ocean University (NTOU) guidelines. All procedures were approved by the Animal Care and Use Committee of NTOU.
The mice were housed individually to prevent fighting and further damage to the wounds, and were given ad libitum access to food and water. The mice were maintained under 12 h/12 h light/dark cycle at a room temperature, and adapted to the environment for at least a week before used in the experiments. Each mouse's hair was removed from the back by shaving, and a full-thickness excisional wound (1 cm in diameter) was created on the back of the mice.
(§3) Each wound was inoculated with 50 μl of broth mix containing 10^6 CFU of the indicated microorganism. The wounds were treated with the antimicrobial peptide according to the invention and collagen at 5 min after inoculation. At 30 min after treatment, wounds were covered with Tegaderm to maintain uniformity and to prevent the loss of the materials as treated. The wounds were examined at Day 3, 7, and 14 after the wounds were created, and the non-contaminated wounds were examined every other day. The wounds were examined to assess the transitions from inflammatory to regenerative and regenerative to resolving phases of the wound healing. At the end of the examination period, the animals were euthanized by CO2 inhalation and the wounds were assessed. For each experiment, four individuals were examined in each group at each time point. Each wound was measured and then removed from the animal, with unwounded skin taken from the contralateral abdomen as a control.
Tracings were taken immediately after injury. For uncontaminated wounds, wound size was determined every second day. For contaminated wounds, mice were euthanized at Day 3, 7, 14, or 17, and tracings of the wound edges were made. Wound areas were determined using the Macintosh Adobe Photoshop program and histological examination. The percentage of wound contraction was calculated as follows: % Wound contraction=(A0−At)/A0×100%
where A0 is the area of the original wound, and At is the area of the wound on Day 3, 7, 14, and 17.
Multidrug-resistant strains of Staphylococcus aureus (MRSA) commonly associated with human wound infections were selected to generate a polymicrobial solution. The initial inoculum was prepared by culturing aerobic bacteria in Tryptic Soy Broth (TSB) overnight at 37° C. Broths were subsequently centrifuged at 1000 rpm for 15 min, and resuspended in TSB with 15% glycerol, or chopped meat extract with 15% glycerol (for aerobic bacteria). The concentration was adjusted to 10^6 cfu/50 μl, and stored at −80° C. Prior to wound application, the bacterial stocks were re-mixed. Microbial load was determined by direct plating, followed by freeze-thaw and cfu enumeration, in parallel with inoculations. The inoculum was delivered by sterile pipettes to the center of open wounds. After euthanization (at Day 0, 3, 7, 14, or 17), two bisected tissue segments were used to determine microbial load using the protocol for human wound biopsy culture, as stated in the UPMC Clinical Microbiology Laboratory Procedure Manual. Tissue biopsies were weighed and placed in 1.5 ml of TSB, and then homogenized in a tissue grinder. A single drop of the homogenate was placed on the slide and Gram stained for rough assessment (if one or more bacteria are present within the oil immersion field, the expected count in the tissue is at least 10^5 cfu/g). Serial dilutions (1:10 (0.1+0.9)) of the tissue homogenate were made using distilled water. The cfu/g of tissue was calculated as follows: cfu/g=plate count (1/dilution)×10/wt. of homogenized tissue. […]

MRSA [4] = experiment: Assessment of wound infection: bacterial load (CFU) and Gram staining of wound tissue; assay type: in vivo, Balb/C mice; settings: for Gram staining of MRSA / Gram-positive microorganisms in wound sections: Day 3 after inoculation
Experimental: Tissue samples were homogenized in PBS. Serially diluted aliquots of homogenate were cultured on Luria-Bertani agar after incubation for 18 h at 37° C., and cfu/g tissue were subsequently calculated. A stable wound infection was defined as 10^6 cfu/g tissue.
as §2
Multidrug-resistant strains of Staphylococcus aureus (MRSA) commonly associated with human wound infections were selected to generate a polymicrobial solution. The initial inoculum was prepared by culturing aerobic bacteria in Tryptic Soy Broth (TSB) overnight at 37° C. Broths were subsequently centrifuged at 1000 rpm for 15 min, and resuspended in TSB with 15% glycerol, or chopped meat extract with 15% glycerol (for aerobic bacteria). […] Prior to wound application, the bacterial stocks were re-mixed. Microbial load was determined by direct plating, followed by freeze-thaw and cfu enumeration, in parallel with inoculations. The inoculum was delivered by sterile pipettes to the center of open wounds. After euthanization (at Day 0, 3, 7, 14, or 17), two bisected tissue segments were used to determine microbial load using the protocol for human wound biopsy culture, as stated in the UPMC Clinical Microbiology Laboratory Procedure Manual. Tissue biopsies were weighed and placed in 1.5 ml of TSB, and then homogenized in a tissue grinder. A single drop of the homogenate was placed on the slide and Gram stained for rough assessment (if one or more bacteria are present within the oil immersion field, the expected count in the tissue is at least 10^5 cfu/g). Serial dilutions (1:10 (0.1+0.9)) of the tissue homogenate were made using distilled water. The cfu/g of tissue was calculated as follows: cfu/g=plate count (1/dilution)×10/wt. of homogenized tissue.

MCP-1, IL-6, TNF = experiment: Serum cytokine/chemokine ELISA in MRSA-infected wounded mice; assay type: in vivo, Balb/C mice; settings: Epi-1 study, 24 h post-treatment
Description: as §1, §3

Molecule | IHC staining of VEGF ([1]; infected wound, Day 3) | IHC staining/infiltration of macrophages ([1]; infected wound, Day 3) | IHC staining/infiltration of monocytes ([1]; infected wound, Day 3) | accumulation/recruitment of monocytes (Giemsa staining) ([1]; wounded area tissue sections, MRSA-infected) | antibacterial efficacy against MRSA in vitro (MRSA [2]) | wound closure (MRSA [3]; MRSA-infected wound, compared to vancomycin-treated mice and control mice) | new blood vessel formation (angiogenesis) (MRSA [3]; MRSA-infected wounded skin, light microscopy) | MRSA CFU in cultured injured skin sections (MRSA [4]; 24 h after treatment, compared to the control) | Gram staining of MRSA / Gram-positive microorganisms in wound sections (MRSA [4]) | bacterial counts in cultured skin sections (CFU) (MRSA [4]; MRSA-infected mice, compared with vancomycin) | MCP-1 induction by MRSA in serum (MCP-1, IL-6, TNF) | induction of IL-6 in serum (MCP-1, IL-6, TNF) | induction of TNF-α in serum (MCP-1, IL-6, TNF) | wound closure time (MRSA [3]; contaminated wounds, GE33 study (FIG. 8B)) | survival of infected mice (MRSA [3]) | wound flora at Day 3 (MRSA [4]; initial inoculum approximately 10^4 cfu/10 μl) | overall epidermal maturation, keratinization and regeneration of the epithelium ([1]; histology of wounds) | healing and re-epithelialization of excision region (MRSA [3]; wound infected with 10^6 cfu MRSA, 3, 7, 14 days) | colony counts between Days 7 and 17 (MRSA [4]; MRSA-contaminated wounds)
Epinecidin-1 (GFIFHIIKGLFHAGKMIHGLV; grouper) [Epi-1] | clearly reduced | clearly reduced | clearly reduced | reduced their recruitment | good antibacterial efficacy | faster | more prominent | significantly reduced | completely abolished; also recorded: more efficient at attenuating MRSA infection than vancomycin | significantly lower | decreased | significantly decreased | significantly decreased |  |  |  |  |  | 
COc1cccc(OC)c1C(=O)N[C@@H]1C(=O)N2[C@@H]1SC(C)(C)[C@@H]2C(=O)O [methicillin] |  |  |  |  |  |  |  |  | completely abolished |  |  | unaffected | unaffected | lack of closure | died within four days | about 10^8 cfu/10 μl |  |  | 
CN[C@H](CC(C)C)C(=O)N[C@H]1C(=O)N[C@@H](CC(N)=O)C(=O)N[C@H]2C(=O)N[C@H]3C(=O)N[C@H](C(=O)N[C@H](C(=O)O)c4cc(O)cc(O)c4-c4cc3ccc4O)[C@H](O)c3ccc(c(Cl)c3)Oc3cc2cc(c3O[C@@H]2O[C@H](CO)[C@@H](O)[C@H](O)[C@H]2O[C@H]2C[C@](C)(N)[C@H](O)[C@H](C)O2)Oc2ccc(cc2Cl)[C@H]1O [vancomycin] |  |  |  |  |  |  |  |  |  |  |  | significantly decreased | significantly decreased |  | survived |  | impairment in overall epidermal maturation | re-epithelialization observed | decreased
